{"source": "patent US5688774A", "about": "(priority 1995, dated 1997)", "key": {"A3 receptors [1]": {"target": "T1, A3 receptors (Rattus norvegicus, UniProt P28647)", "T1 sequence (P28647 1-320)": "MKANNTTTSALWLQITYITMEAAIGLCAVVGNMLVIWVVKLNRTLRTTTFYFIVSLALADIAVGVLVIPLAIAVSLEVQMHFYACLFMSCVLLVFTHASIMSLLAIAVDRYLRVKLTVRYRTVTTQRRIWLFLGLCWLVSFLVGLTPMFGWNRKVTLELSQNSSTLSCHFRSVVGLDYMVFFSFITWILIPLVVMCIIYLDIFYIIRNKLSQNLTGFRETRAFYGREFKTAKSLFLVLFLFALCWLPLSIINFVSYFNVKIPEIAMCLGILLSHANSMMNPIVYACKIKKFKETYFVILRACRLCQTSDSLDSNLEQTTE", "assay": "A3 receptor binding selectivity", "settings": "in words"}, "A3 receptors [2]": {"target": "T1, A3 receptors", "settings": "in words; Zhou et al.; cited from earlier work"}, "A3 receptor": {"system": "A3 receptor", "settings": "coadministered with a xanthine antagonist that does not act at A3 receptors; cited from earlier work"}, "rat brain A1 receptor": {"target": "T2, rat brain A1 receptor (Rattus norvegicus, UniProt P25099)", "T2 construct": "Rat cerebral cortical and striatal membranes were prepared; from tissue; host or cells: rat brain membranes (cerebral cortical)", "T2 sequence (P25099 1-326)": "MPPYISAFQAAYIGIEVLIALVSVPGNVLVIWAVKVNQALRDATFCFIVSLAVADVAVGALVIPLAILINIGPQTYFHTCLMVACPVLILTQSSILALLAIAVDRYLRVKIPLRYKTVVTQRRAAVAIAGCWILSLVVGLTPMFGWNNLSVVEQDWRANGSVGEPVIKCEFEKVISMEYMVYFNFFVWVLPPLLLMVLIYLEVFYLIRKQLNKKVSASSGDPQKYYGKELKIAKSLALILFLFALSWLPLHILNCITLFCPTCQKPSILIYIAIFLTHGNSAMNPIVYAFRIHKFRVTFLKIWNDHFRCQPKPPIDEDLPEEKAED", "assay": "Displacement of [^3 H]PIA binding at A1 receptors", "settings": "[^3 H]PIA, rat brain membranes; Ki ± S.E.M., n = 3-6"}, "rat brain A2a receptor": {"target": "T3, rat brain A2a receptor (Rattus norvegicus, UniProt P30543)", "T3 construct": "A2 receptors from rat striatal membranes; from tissue; host or cells: rat striatal membranes", "T3 sequence (P30543 whole entry)": "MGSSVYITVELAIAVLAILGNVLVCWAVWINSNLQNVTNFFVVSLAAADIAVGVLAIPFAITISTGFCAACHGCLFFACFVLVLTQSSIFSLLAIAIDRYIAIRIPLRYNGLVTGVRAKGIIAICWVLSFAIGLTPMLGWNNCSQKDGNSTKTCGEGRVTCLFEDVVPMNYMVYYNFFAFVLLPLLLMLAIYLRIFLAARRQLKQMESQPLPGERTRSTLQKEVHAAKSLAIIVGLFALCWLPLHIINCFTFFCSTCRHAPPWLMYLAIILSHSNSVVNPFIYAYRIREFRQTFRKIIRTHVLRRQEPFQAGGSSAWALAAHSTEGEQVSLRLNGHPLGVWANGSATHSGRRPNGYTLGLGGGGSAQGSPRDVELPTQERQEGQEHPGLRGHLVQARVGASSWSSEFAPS", "assay": "Displacement of [^3 H]CGS 21680 binding at A2a receptors", "settings": "for Ki: [^3 H]CGS 21680, rat brain membranes, Ki ± S.E.M., n = 3-6", "procedure": "Rat cerebral cortical and striatal membranes were prepared (Jacobson et al., J. Med. Chem., 35, 4143-4149 (1992)) and treated with ADA for 30 min at 37° C. prior to storage at -70° C.\nThe stock solutions were diluted with DMSO to a concentration of ≤0.1 mM prior to addition to the aqueous medium. The final concentration of DMSO in the assay medium was generally 2%.\nAt least six different concentrations spanning three orders of magnitude, adjusted appropriately for the IC50 of each compound, were used. […]. Pharmacol., 22, 3099-3108 (1973))."}, "[3]": {"target": "T4, rat A3 adenosine receptors (Rattus norvegicus, UniProt P28647)", "T4 construct": "expressed in transfected cells; host or cells: CHO cells, stably transfected", "T4 sequence (P28647 1-320)": "T1 sequence (P28647 1-320)", "assay": "Inhibition of adenylate cyclase in CHO cells stably transfected with rat A3 adenosine receptors", "type": "cell-based", "design": "key to Effect on IB-MECA dose-resp. curve: no effect", "settings": "for Ratio Conc./Ki (A3): test concentration divided by Ki (A3)"}, "[4]": {"system": "ischemic model in gerbils", "settings": "cited from earlier work"}, "[5]": {"system": "NMDA-induced seizures in mice", "settings": "cited from earlier work"}, "[6]": {"settings": "CHO, 1 μM forskolin, average ± S.E.M. for 2-3 determinations or a single value, read-out: % Inhib. (adenylate cyclase)"}}, "data": [{"molecule": "OC[C@H]1O[C@@H](n2cnc3c(NCc4cccc(I)c4)nc(Cl)nc32)[C@H](O)[C@@H]1O", "note": "[2-chloro-N^6-(3-iodobenzyl)-adenosine]", "values": [{"measurement": "tolerance of 2-substitution at A3 receptors", "setting": "A3 receptors [1]", "value": "well-tolerated"}]}, {"molecule": "CCNC(=O)[C@H]1O[C@@H](n2cnc3c(N)nc(NCCc4ccc(CCC(=O)NCCN)cc4)nc32)[C@H](O)[C@@H]1O", "note": "[APEC]", "values": [{"measurement": "tolerance of 2-substitution at A3 receptors", "setting": "A3 receptors [1]", "value": "well-tolerated"}]}, {"molecule": "Nc1ccc(CCNc2ncnc3c2ncn3[C@@H]2O[C@H](CO)[C@@H](O)[C@H]2O)cc1", "note": "[APNEA, N^6-2-(4-aminophenyl)ethyladenosine]", "values": [{"measurement": "activity at the A3 receptor", "setting": "A3 receptors [2]", "value": "agonists for the A3 receptor"}, {"measurement": "cardioprotective potential of A3 receptor activation", "setting": "A3 receptor", "value": "has been demonstrated"}]}, {"molecule": "CNC(=O)[C@@H]1C[C@@H](OC(C)=O)[C@H](n2cnc3c(NCc4cccc(I)c4)nc(Cl)nc32)O1", "note": "[Compound 37, 9-(2-Acetyl-3-Deoxy-β-D-5-Methyl-Ribofuronamido)-2-Chloro -N^6-(3-Iodobenzyl)adenine]", "values": [{"measurement": "Ki", "setting": "rat brain A1 receptor", "value": "0.778 ± 0.044", "unit": "µM"}, {"measurement": "Ki", "setting": "rat brain A2a receptor", "value": "15.9 ± 3.7", "unit": "µM"}, {"measurement": "inhibition at 20 µM", "setting": "[3]; CHO, 20 μM, 1 μM forskolin, average ± S.E.M. for 2-3 determinations or a single value, read-out: % Inhib. (adenylate cyclase)", "value": "12.7 ± 1", "unit": "%"}, {"measurement": "Ratio Conc./Ki (A3)", "setting": "[3]", "value": 320}]}, {"molecule": "CNC(=O)[C@@H]1CC[C@H](n2cnc3c(NCc4ccccc4)nc(Cl)nc32)O1", "note": "[Compound 40, 2-Chloro-9-(2,3-Dideoxy-β-D-5-Methyl-Ribofuronamido)-N^6 -Benzyladenine]", "values": [{"measurement": "Ki", "setting": "rat brain A1 receptor", "value": "11.5 ± 1.3", "unit": "µM"}, {"measurement": "Ki", "setting": "rat brain A2a receptor", "value": "220 ± 65", "unit": "µM"}, {"measurement": "Effect on IB-MECA dose-resp. curve", "setting": "[3]; 1 μM forskolin", "value": "c"}, {"measurement": "inhibition at 40 µM", "setting": "[3]; CHO, 40 μM, 1 μM forskolin, average ± S.E.M. for 2-3 determinations or a single value, read-out: % Inhib. (adenylate cyclase)", "value": "18.1 ± 8.7", "unit": "%"}, {"measurement": "Ratio Conc./Ki (A3)", "setting": "[3]", "value": 1.3}]}, {"molecule": "CNC(=O)[C@@H]1C[C@@H](O)[C@H](n2cnc3c(NCc4cccc(I)c4)nc(Cl)nc32)O1", "note": "[Compound 41b, 2-Chloro-9-(3-Deoxy-β-D-5-Methyl-Ribofuronamido)-N^6-(3-Iodobenzyl)adenine]", "values": [{"measurement": "Ki", "setting": "rat brain A1 receptor", "value": "1.03 ± 0.15", "unit": "µM"}, {"measurement": "Ki", "setting": "rat brain A2a receptor", "value": "4.66 ± 0.74", "unit": "µM"}, {"measurement": "inhibition at 100 µM", "setting": "[3]; [6]", "value": "49.2 ± 3.7", "unit": "%"}, {"measurement": "Ratio Conc./Ki (A3)", "setting": "[3]", "value": 3000}]}, {"molecule": "CNC(=O)[C@@H]1C[C@H](N=[N+]=[N-])[C@H](n2cnc3c(NCc4cccc(I)c4)nc(Cl)nc32)O1", "note": "[Compound 42, 2-Chloro-9-(2'-Azido-2',3'-Dideoxy-β-D-5'-Methyl-Arabinofuronamido)-N^6 (3-Iodobenzyladenine)]", "values": [{"measurement": "Ki", "setting": "rat brain A1 receptor", "value": "0.401 ± 0.041", "unit": "µM"}, {"measurement": "Ki", "setting": "rat brain A2a receptor", "value": "28.1 ± 3.2", "unit": "µM"}, {"measurement": "inhibition at 100 µM", "setting": "[3]; [6]", "value": 27.8, "unit": "%"}, {"measurement": "Ratio Conc./Ki (A3)", "setting": "[3]", "value": 17}]}, {"molecule": "CC(C)[Si]1(C(C)C)OC[C@H]2O[C@@H](n3cnc4c(NCc5cccc(I)c5)nc(Cl)nc43)[C@H](O)[C@@H]2O[Si](C(C)C)(C(C)C)O1", "note": "[Compound 45, 2-Chloro-9-(3,5-1,1,3,3-Tetraisopropyldisiloxyl-β-D-5-Ribofuranosyl)-N^6-(3-Iodobenzyl)adenine]", "values": [{"measurement": "Ki", "setting": "rat brain A1 receptor", "value": "66.3 ± 19.8", "unit": "µM"}, {"measurement": "% Inhibition (A2a)", "setting": "rat brain A2a receptor; at 10^-4, [^3 H]CGS 21680, rat brain", "value": "18 ± 2", "unit": "%"}, {"measurement": "inhibition at 100 µM", "setting": "[3]; [6]", "value": 8.7, "unit": "%"}, {"measurement": "Ratio Conc./Ki (A3)", "setting": "[3]", "value": 7.6}]}, {"molecule": "CNC(=O)[C@H]1O[C@@H](n2cnc3c(NCc4cccc(I)c4)nc(Cl)nc32)[C@@H]2OC(=S)O[C@@H]21", "note": "[Compound 46, 2-Chloro-9-(2',3'-O-Thiocarbonyl-β-D-5-Methyl-Ribofuronamido)-N^6-(3-Iodobenzyl)adenine]", "values": [{"measurement": "Ki", "setting": "rat brain A1 receptor", "value": "0.179 ± 0.024", "unit": "µM"}, {"measurement": "Ki", "setting": "rat brain A2a receptor", "value": "0.871 ± 0.219", "unit": "µM"}, {"measurement": "inhibition at 100 µM", "setting": "[3]; [6]", "value": "54.5 ± 8.1", "unit": "%"}, {"measurement": "Ratio Conc./Ki (A3)", "setting": "[3]", "value": 8200}]}, {"molecule": "CNC(=O)[C@H]1O[C@@H](n2cnc3c(NCc4cccc(I)c4)ncnc32)[C@H](O)[C@@H]1O", "note": "[IB-MECA, N^6-(3-iodobenzyl)adenosine-5'-N-methyluronamide]", "values": [{"measurement": "cerebroprotective effects, ischemic model", "setting": "[4]", "value": "cerebroprotective effects"}, {"measurement": "cerebroprotective effects, NMDA-induced seizures", "setting": "[5]", "value": "cerebroprotective effects"}]}, {"molecule": "CCNC(=O)[C@H]1O[C@@H](n2cnc3c(NCc4ccccc4)ncnc32)[C@H](O)[C@@H]1O", "note": "[N^6-benzyladenosine-5'-N-ethyluronamide, reference compound]", "values": [{"measurement": "agonist efficacy in inhibition of adenylate cyclase", "setting": "[3]; in words, via rat A3 receptors", "value": "full agonists"}, {"measurement": "selectivity for rat A3 receptors vs. either A1 or A2a receptors in binding assays", "setting": "A3 receptors [1]", "value": "only one order of magnitude selective"}]}]}
